Common to all, as to format: in vivo
Assay [1] deals with green peach aphid (Myzus persicae (Sulzer)). Kind of assay: Test C: control of green peach aphid on radish plant (spray, contact and/or systemic). Particulars: 144 h. The protocol: (§1) Test compounds were formulated using a solution containing 10% acetone, 90% water and 300 ppm X-77® Spreader Lo-Foam Formula non-ionic surfactant containing alkylarylpolyoxyethylene, free fatty acids, glycols and isopropanol (Loveland Industries, Inc. Greeley, Colo., USA). The formulated compounds were applied in 1 mL of liquid through a SUJ2 atomizer nozzle with 1/8 JJ custom body (Spraying Systems Co. Wheaton, Ill., USA) positioned 1.27 cm (0.5 inches) above the top of each test unit. Test compounds were sprayed at the rates indicated, and each test was replicated three times.
For evaluating control of green peach aphid (Myzus persicae (Sulzer)) through contact and/or systemic means, the test unit consisted of a small open container with a 12-15-day-old radish plant inside. This was pre-infested by placing on a leaf of the test plant 30-40 aphids on a piece of leaf excised from a culture plant (cut-leaf method). The aphids moved onto the test plant as the leaf piece desiccated. After pre-infestation, the soil of the test unit was covered with a layer of sand.
Test compounds were formulated and sprayed at 250 and/or 50 ppm. After spraying of the formulated test compound, each test unit was allowed to dry for 1 hour and then a black, screened cap was placed on top. The test units were held for 6 days in a growth chamber at 19-21° C. and 50-70% relative humidity. Each test unit was then visually assessed for insect mortality.

Assay [2] concerns cotton melon aphid (Aphis gossypii (Glover)). Kind of assay: Test D: control of cotton melon aphid on cotton plant (spray, contact and/or systemic). Particulars: 144 h, assessed after 6 days; for mortality at 50 ppm: sprayed at 50 ppm; for mortality at 250 ppm: sprayed at 250 ppm. The protocol: as §1
For evaluating control of cotton melon aphid (Aphis gossypii (Glover)) through contact and/or systemic means, the test unit consisted of a small open container with a 6-7-day-old cotton plant inside. This was pre-infested with 30-40 insects on a piece of leaf according to the cut-leaf method, and the soil of the test unit was covered with a layer of sand.
Test compounds were formulated and sprayed at 250 and/or 50 ppm. After spraying, the test units were maintained in a growth chamber for 6 days at 19° C. and 70% relative humidity. Each test unit was then visually assessed for insect mortality.

Assay [3] has as its system sweetpotato whitefly (Bemisia tabaci (Gennadius)). Kind of assay: Test F: control of sweetpotato whitefly on cotton plant (spray, contact and/or systemic). Conditions: 312 h. The protocol:
as §1
For evaluating control of the sweetpotato whitefly (Bemisia tabaci (Gennadius)) through contact and/or systemic means, the test unit consisted of a small open container with a 12-14-day-old cotton plant inside. Prior to the spray application, both cotyledons were removed from the plant, leaving one true leaf for the assay. Adult whiteflies were allowed to lay eggs on the plant and then were removed from the test unit. Cotton plants infested with at least 15 eggs were submitted to the test for spraying.
Test compounds were formulated and sprayed at 250 and/or 50 ppm. After spraying, the test units were allowed to dry for 1 hour. The cylinders were then removed, and the units were taken to a growth chamber and held for 13 days at 28° C. and 50-70% relative humidity. Each test unit was then visually assessed for insect mortality.

Assay [4] relates to potato leafhopper (Empoasca fabae (Harris)). Kind of assay: Test B: control of potato leafhopper on Soleil bean plant (spray, contact and/or systemic). Conditions: 144 h, sprayed at 250 ppm, assessed after 6 days. The protocol:
as §1
For evaluating control of potato leafhopper (Empoasca fabae (Harris)) through contact and/or systemic means, the test unit consisted of a small open container with a 5-6-day-old Soleil bean plant (primary leaves emerged) inside. White sand was added to the top of the soil, and one of the primary leaves was excised prior to application of the test compound.
Test compounds were formulated and sprayed at 250 and/or 50 ppm. After spraying of the formulated test compound, the test units were allowed to dry for 1 hour before they were post-infested with 5 potato leafhoppers (18-to-21-day-old adults). […] Each test unit was then visually assessed for insect mortality.

[5] abbreviates: sprayed at 50 ppm, assessed after 6 days, read-out: mortality.
Where [6] appears, read: sprayed at 250 ppm, assessed after 6 days, read-out: mortality.
The mark [7] stands for this setting: sprayed at 250 ppm, assessed after 13 days, read-out: mortality.

This is an account of results in US11578085B2, “Heterocycle-substituted bicyclic azole pesticides” (FMC CORPORATION, priority 2013, dated 2023).

Molecules are shown by their SMILES. Like-named read-outs stand apart in the source and are kept apart here.

For the compound `COC(=O)NNC(=O)c1ccc2nn(-c3cccnc3)cc2c1` [Compound 42, methyl 2-[[2-(3-pyridinyl)-2H-indazol-5-yl]carbonyl]hydrazinecarboxylate], the mortality at 50 ppm in assay [1] (setting [5]) and in assay [2] was no less than 80% throughout. Moreover, the mortality at 250 ppm in assay [1] (setting [6]) was no less than 80%; in assay [3] (setting [7]), no less than 50%.

As to `O=C(NCC(F)(F)F)c1cccc2nn(-c3cccnc3)cc12` [Compound 19, 2-(3-pyridinyl)-N-(2,2,2-trifluoroethyl)-2H-indazole-4-carboxamide], the mortality at 50 ppm in assay [1] (setting [5]) and in assay [2] was no less than 80% in each case. The mortality at 250 ppm in assay [1] (setting [6]) and in assay [2] was no less than 80% throughout.

With `O=C(NC1CCCCC1)c1cccc2nn(-c3cccnc3)cc12` [Compound 16, N-cyclohexyl-2-(3-pyridinyl)-2H-indazole-4-carboxamide], the mortality at 50 ppm in assay [1] (setting [5]) and in assay [2] was no less than 80% in each case. Besides, the mortality at 250 ppm in assay [1] (setting [6]) and in assay [2] was no less than 80% in each case.

For `O=C(NCC1CC1(F)F)c1ccc2nn(-c3cccnc3)cc2c1` (stereo not shown) [Compound 51, N-[(2,2-difluorocyclopropyl)methyl]-2-(3-pyridinyl)-2H-indazole-5-carboxamide], the mortality at 50 ppm in assay [1] (setting [5]) and in assay [2] was no less than 80% each time. Besides, the mortality at 250 ppm in assay [1] (setting [6]) and in assay [2] was no less than 80% throughout.

Turning to `O=C(NC1CC1)c1cccc2nn(-c3cccnc3)cc12` [Compound 14, N-cyclopropyl-2-(3-pyridinyl)-2H-indazole-4-carboxamide], the mortality at 50 ppm in assay [1] (setting [5]) and in assay [2] was no less than 80% throughout. Also, the mortality at 250 ppm in assay [1] (setting [6]) and in assay [2] was no less than 80% throughout.

As to `O=C(NCc1ncccn1)c1ccc2nn(-c3cccnc3)cc2c1` [Compound 55, 2-(3-pyridinyl)-N-(2-pyrimidinylmethyl)-2H-indazole-5-carboxamide], the mortality at 50 ppm in assay [1] (setting [5]) and in assay [2] was no less than 80% in each case. The mortality at 250 ppm in assay [1] (setting [6]) and in assay [2] was no less than 80% in each case.

`O=C(NCC1CCCO1)c1ccc2nn(-c3cccnc3)cc2c1` (stereo not shown) [Compound 41, 2-(3-pyridinyl)-N-[(tetrahydro-2-furanyl)methyl]-2H-indazole-5-carboxamide]: the mortality at 50 ppm in assay [1] (setting [5]) and in assay [2] was no less than 80% throughout. Besides, the mortality at 250 ppm in assay [1] (setting [6]) and in assay [2] was no less than 80% in each case.

`CC(C)NC(=O)c1cccc2nn(-c3cccnc3)cc12` [Compound 8, N-(1-methylethyl)-2-(3-pyridinyl)-2H-indazole-4-carboxamide]: the mortality at 50 ppm in assay [1] (setting [5]) and in assay [2] was no less than 80% throughout. For the same compound, the mortality at 250 ppm in assay [1] (setting [6]) is no less than 80%; in assay [2], no less than 80%; in assay [3] (setting [7]) it was no less than 50%.

Consider `Cc1cnc(CNC(=O)c2ccc3nn(-c4cccnc4)cc3c2)cn1` [Compound 76, N-[(5-methyl-2-pyrazinyl)methyl]-2-(3-pyridinyl)-2H-indazole-5-carboxamide], for which the mortality at 50 ppm in assay [1] (setting [5]) and in assay [2] was no less than 80% in each case. For the same compound, in assay [1] (setting [6]), the mortality at 250 ppm is no less than 80%.

For the compound `O=C(NCCCl)c1ccc2nn(-c3cccnc3)cc2c1` [Compound 463], in assay [1], the mortality at 50 ppm was no less than 80% and the mortality at 250 ppm was no less than 80%. Moreover, in assay [3], the mortality at 250 ppm is no less than 50%.

For `CSCCNC(=O)c1cccc2nc(-c3cccnc3)sc12` [Compound 84, N-[2-(methylthio)ethyl]-2-(3-pyridinyl)-7-benzothiazolecarboxamide], in assay [1] (setting [5]), the mortality at 50 ppm was no less than 80%. Besides, the mortality at 250 ppm in assay [1] (setting [6]) is no less than 80%.

On to `O=C(NCC(F)(F)F)c1cccc2nn(-c3ccc[n+]([O-])c3)cc12` [Compound 466], for which the mortality at 250 ppm in assay [4] is no less than 80%.

`CC(F)(F)CNC(=O)c1ccc2nn(-c3cccnc3)cc2c1` [Compound 54, N-(2,2-difluoropropyl)-2-(3-pyridinyl)-2H-indazole-5-carboxamide]: the mortality at 50 ppm in assay [1] (setting [5]) and in assay [2] was no less than 80% in each case. In addition, the mortality at 250 ppm in assay [1] (setting [6]) and in assay [2] was no less than 80% each time.

Consider `O=C(NCC1CCCO1)c1ccc2nn(-c3ccc[n+]([O-])c3)cc2c1` (stereo not shown) [Compound 462], for which, in assay [1] (setting [5]), the mortality at 50 ppm is no less than 80%. Moreover, the mortality at 250 ppm in assay [1] (setting [6]) and in assay [2] was no less than 80% throughout.
